Measured values: PMC8811960, “A Novel 2-Carbon-Linked Dimeric Artemisinin With Potent Antileukemic Activity and Favorable Pharmacology” (Frontiers in Oncology, 2022)
Structures can show the parent of a compound that is named as a salt.

Legend:
[1] = tested on: MOLM14, MV4;11, and HL60 human AML cells; assay: Annexin V/7-AAD cell viability and apoptosis; type: cell-based; details: 30-45 min pre-incubation with 10 nM QVD
Experimental: Cytotoxicity was assessed using alamarBlue assays (Life Technologies, Grand Island, NY) following manufacturer’s guidelines. Cell death was verified by Annexin V/7-aminoactinomycin D (7AAD) staining (BioLegend, San Diego, CA) per manufacturer’s guidelines.
MOLM14, MV4;11, and HL60 human AML cells were assessed for cell viability and caspase-dependent apoptosis following treatment with ART631 (200 nM), VEN (50 nM), SOR (5 µM), and combinations thereof.
Figure 3 ART631-based combination treatments reduced cell viability in AML cell lines. MOLM14, MV4;11, and HL60 AML cells were each treated for 18h with vehicle (DMSO) control, ART631 alone (200 nM), VEN alone (50 nM), SOR alone (5 uM), and 2- and 3-drug combinations, all with and without a 30-45 min pre-incubation with 10 nM pan-caspase inhibitor QVD-OPh (QVD). Treated cells were stained with 2.5 ug/mL 7-aminoactinomycin D (7-AAD) and 0.5 ug/mL allophycocyanin (APC)-conjugated Annexin V in Annexin V binding buffer and analyzed by flow cytometry. Graphs indicate % cell viability based on Annexin V/7-AAD dual staining. For MOLM14 and MV4;11, means and SDs shown are based on 3 independent experiments. HL60 cell data is from one experiment done in triplicate.

[2] = tested on: MOLM14, MV4;11, and HL60 human AML cells; parameters: method as in PMID 33560385; details: ART631 200 nM, VEN 50 nM, SOR 5 µM; MOLM14, MV4;11, HL60; cited from earlier work
MOLM14 cells = assay: Total cellular ROS (CM-H2DCFDA flow cytometry); type: cell-based, human; details: MOLM14, DFO 11 uM, 60 min pre-treatment
Experimental: […] Cells were then treated with ART631 (200 nM) or DMSO control for 18h, with subsequent analysis by flow cytometry. Western blotting and quantitative reverse transcription PCR (qRT-PCR) to assess for molecular markers of ROS-mediated apoptosis were performed as previously described ([20]).
Figure 4 ART631 elevated ROS and CHOP levels and reduced MCL1 expression in MOLM14 AML cells. […] They were then analyzed by flow cytometry. Graph represents %CM-H2DCFDA fluorescence compared to vehicle (DMSO) control treated cells. Error bars represent SD from 3 independent experiments. (B) MOLM14 AML cells were treated for 18h with vehicle, AS (10 uM), ART838 (200 nM), ART631 (200 nM), cytarabine (AraC; 150 nM), or SOR (5 uM). Protein was isolated and western blotted for MCL1, BCL2, CHOP, and β-actin. (C) MOLM14 cells were treated as in (B) for 18h, total RNA isolated, cDNA synthesized, and SYBR Green qRT-PCR performed in triplicates. Ct values were normalized to housekeeping gene GAPDH and fold change shown relative to vehicle (DMSO) control. Error bars represent SD from 3 independent experiments done in triplicate.

SMILES	cell death as single agents [2]	further results
CC(C)[C@H](NC(=O)c1ccc2ccccc2n1)C(=O)N[C@@H](CC(=O)O)C(=O)COc1c(F)cccc1F [QVD-OPh]	–	effect of pre-treatment on apoptosis and cell death for all drugs and combinations [1]: almost fully inhibited
CNC(=O)c1cc(Oc2ccc(NC(=O)Nc3ccc(Cl)c(C(F)(F)F)c3)cc2)ccn1 [SOR, sorafenib]	less than 15%	–
CC1(C)CCC(CN2CCN(c3ccc(C(=O)NS(=O)(=O)c4ccc(NCC5CCOCC5)c([N+](=O)[O-])c4)c(Oc4cnc5[nH]ccc5c4)c3)CC2)=C(c2ccc(Cl)cc2)C1 [VEN, venetoclax]	less than 15%	–
CC(=O)N(O)CCCCCNC(=O)CCC(=O)N(O)CCCCCNC(=O)CCC(=O)N(O)CCCCCN [deferoxamine mesylate, reference compound]	–	effect of pre-treatment on ROS generation by ART631 (MOLM14 cells): diminished
